# Reference: patent US20250325690A1, “ANTIBODY-DRUG CONJUGATE WITH TWO TYPES OF DRUG-LINKER CONJUGATES ON SINGLE ANTIBODY” (priority 2022, published 2025)
# pIC50: −log10 of the molar value. Entries after “also recorded” stand apart in the source; their conditions may differ. Read-outs that look alike come from different tables or passages of the source.
# Key:
# [1] = test system: FaDu cell line not expressing ABCG2; experiment: In vitro cell viability test, FaDu; conditions: FIG. 28, 3 days
# DDX5 = target: T1, DDX5 (Homo sapiens, UniProt P17844); assay type: cell-based; conditions: FaDu and A549, 0, 10, 100 nM, 24 hours
# T1 construct: endogenous in cells; host or cells: FaDu and A549 cell lines
# DNA topoisomerase-1 = target: T2, DNA topoisomerase-1 (Homo sapiens, UniProt P11387); conditions: cited from earlier work
# T2 sequence (P11387 1-765): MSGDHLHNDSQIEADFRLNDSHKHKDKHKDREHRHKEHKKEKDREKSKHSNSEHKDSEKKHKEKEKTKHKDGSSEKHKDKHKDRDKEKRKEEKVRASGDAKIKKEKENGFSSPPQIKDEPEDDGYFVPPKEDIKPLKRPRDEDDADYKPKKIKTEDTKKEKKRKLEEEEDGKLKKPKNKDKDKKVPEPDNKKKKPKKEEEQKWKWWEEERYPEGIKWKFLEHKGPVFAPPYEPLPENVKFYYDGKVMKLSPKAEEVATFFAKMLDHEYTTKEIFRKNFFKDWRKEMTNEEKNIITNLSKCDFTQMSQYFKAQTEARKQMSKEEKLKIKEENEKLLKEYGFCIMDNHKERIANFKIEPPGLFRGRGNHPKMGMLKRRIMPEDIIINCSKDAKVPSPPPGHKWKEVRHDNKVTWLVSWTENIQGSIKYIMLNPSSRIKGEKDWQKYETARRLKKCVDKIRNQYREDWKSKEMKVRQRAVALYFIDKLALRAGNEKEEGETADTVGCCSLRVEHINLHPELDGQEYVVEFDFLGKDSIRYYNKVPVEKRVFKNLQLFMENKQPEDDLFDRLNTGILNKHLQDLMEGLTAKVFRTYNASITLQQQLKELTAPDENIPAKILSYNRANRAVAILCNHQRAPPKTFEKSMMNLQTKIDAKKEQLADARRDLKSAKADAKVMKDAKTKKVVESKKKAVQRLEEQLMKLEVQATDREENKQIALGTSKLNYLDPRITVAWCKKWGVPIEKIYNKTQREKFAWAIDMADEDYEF
# cancer cells [2] = conditions: cited from earlier work
# cancer cells [3] = experiment: Cytotoxicity in cancer cell lines; assay type: cell-based; conditions: 140 cell lines from various cancer types, most cancer cells
# GLP-toxicity tests = assay type: in vivo; conditions: mice and beagle dogs
# [4] = test system: cancer cell line xenograft models; experiment: Cancer cell line xenograft models, FL118 versus SN-38; assay type: in vivo; conditions: same amount as SN-38
# ABCG2 transporter = target: T3, ABCG2 transporter (Homo sapiens, UniProt Q9UNQ0); experiment: Effect of ABCG2 transporter on drug; assay type: cell-based
# T3 sequence (Q9UNQ0 1-655): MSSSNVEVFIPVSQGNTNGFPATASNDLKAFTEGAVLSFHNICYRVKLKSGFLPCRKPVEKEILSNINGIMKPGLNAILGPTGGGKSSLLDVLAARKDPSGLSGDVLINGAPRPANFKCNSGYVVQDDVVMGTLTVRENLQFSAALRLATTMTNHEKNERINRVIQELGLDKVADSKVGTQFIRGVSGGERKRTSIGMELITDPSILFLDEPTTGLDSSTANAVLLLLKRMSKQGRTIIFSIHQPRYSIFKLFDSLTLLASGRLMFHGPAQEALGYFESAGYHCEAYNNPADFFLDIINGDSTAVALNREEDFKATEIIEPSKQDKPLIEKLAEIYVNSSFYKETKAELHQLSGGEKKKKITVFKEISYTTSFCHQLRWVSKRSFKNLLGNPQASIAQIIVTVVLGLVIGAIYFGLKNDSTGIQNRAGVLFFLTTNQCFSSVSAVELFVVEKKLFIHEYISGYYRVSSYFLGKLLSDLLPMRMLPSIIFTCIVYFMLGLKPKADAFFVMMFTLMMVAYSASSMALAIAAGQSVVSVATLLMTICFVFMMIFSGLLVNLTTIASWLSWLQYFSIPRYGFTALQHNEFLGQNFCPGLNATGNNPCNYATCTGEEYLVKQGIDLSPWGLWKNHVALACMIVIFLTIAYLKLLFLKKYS
# [5] = test system: survivin, cIAP2, Mcl-1, XIAP; experiment: Western blotting of anti-apoptotic protein expression; conditions: HCT-8 and FaDu cell lines; FIG. 17
# [6] = human, in vivo; cited from earlier work
# T1 sequence (P17844 whole entry): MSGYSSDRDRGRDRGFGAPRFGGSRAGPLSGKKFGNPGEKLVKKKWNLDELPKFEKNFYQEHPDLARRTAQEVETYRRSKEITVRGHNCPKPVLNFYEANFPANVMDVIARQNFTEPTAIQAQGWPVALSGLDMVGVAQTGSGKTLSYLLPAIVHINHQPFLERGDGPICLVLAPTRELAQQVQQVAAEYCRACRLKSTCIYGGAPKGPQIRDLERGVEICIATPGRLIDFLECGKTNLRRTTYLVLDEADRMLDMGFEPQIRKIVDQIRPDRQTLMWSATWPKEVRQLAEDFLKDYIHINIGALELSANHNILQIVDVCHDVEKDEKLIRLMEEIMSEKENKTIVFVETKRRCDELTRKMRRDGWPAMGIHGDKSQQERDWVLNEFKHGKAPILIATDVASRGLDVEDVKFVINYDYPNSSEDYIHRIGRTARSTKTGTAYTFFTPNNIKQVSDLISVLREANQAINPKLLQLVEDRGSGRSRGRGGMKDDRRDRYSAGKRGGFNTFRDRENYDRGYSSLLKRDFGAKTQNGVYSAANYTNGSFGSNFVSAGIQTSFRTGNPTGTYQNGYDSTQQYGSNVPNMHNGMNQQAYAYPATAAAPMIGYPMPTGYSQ
compound,measurement,setting,value
CC[C@@]1(O)C(=O)OCc2c1cc1n(c2=O)Cc2c-1nc1cc3c(c4c1c2[C@@H](NC(=O)[C@@H](O)C1CC1)CC4)OCO3 [PBX-7024],apoptotic efficacy,[1],potent apoptotic efficacy
CC[C@@]1(O)C(=O)OCc2c1cc1n(c2=O)Cc2c-1nc1cc3c(c4c1c2[C@@H](NC(=O)[C@@H](C)O)CC4)OCO3 [PBX-7016],DDX5 degradation,DDX5,degrading DDX5; also recorded: inhibits DDX5 in a concentration-dependent manner; also recorded: works better than PBX-7014
same,DDX5 degradation,DDX5; listed as 7016,"followed by 7011, 7016, and 7014 in this order"
CC[C@@]1(O)C(=O)OCc2c1cc1n(c2=O)Cc2c-1nc1cc3c(c4c1c2[C@@H](NC(=O)CO)CC4)OCO3 [PBX-7014],DDX5 degradation,DDX5,degrading DDX5
same,DDX5 degradation,DDX5; listed as 7014,"followed by 7011, 7016, and 7014 in this order"
CC[C@@]1(O)C(=O)OCc2c1cc1n(c2=O)Cc2c-1nc1cc(F)c(C)c3c1c2[C@@H](NC(=O)CO)CC3 [Dxd],DDX5 degradation,DDX5,exhibits a MoA that degrades the DDX5 protein
same,pIC50,DNA topoisomerase-1,6.51
same,cytotoxicity / activity in cancer cells relative to SN-38,cancer cells [2],about 10 times
CC[C@@]1(O)C(=O)OCc2c1cc1n(c2=O)Cc2cc3cc4c(cc3nc2-1)OCO4 [FL118],DDX5 degradation,DDX5,superior to other substances
same,pIC50,cancer cells [3],> 7.00
same,safety,GLP-toxicity tests,excellent safety
same,efficacy compared to SN-38,[4],superior efficiency compared to SN-38; also recorded: strong tumor regression efficacy compared to SN-38
same,effect of ABCG2 transporter,ABCG2 transporter,not affected by the ABCG2 transporter
same,downregulating a tumor protein compared to SN-38,[5],better effect in downregulating a tumor protein
CC[C@@]1(O)C(=O)OCc2c1cc1n(c2=O)Cc2c-1nc1cc(F)c(C)c3c1c2[C@@H](N)CC3 [exatecan],DDX5 degradation,DDX5,exhibits a MoA that degrades the DDX5 protein
same,downregulating a tumor protein compared to SN-38,[5],better effect in downregulating a tumor protein
"CC[C@@]1(O)C(=O)OCc2c1cc1n(c2=O)Cc2c-1nc1cc3c(c4c1c2[C@@H](N)CC4)OCO3 (single isomer, unassigned) [PBX-7011]",DDX5 degradation,DDX5,degrading DDX5
same,DDX5 degradation,DDX5; listed as 7011,"followed by 7011, 7016, and 7014 in this order"
Trodelvy,diarrhea of all grades,[6],65%
same,"febrile neutropenia, patients",[6],7%
same,neutropenia grade 3 or higher,[6],47%
same,neutropenia of all grades,[6],61%
same,"neutropenic colitis, patients",[6],0.5%
